Values of other authors as cited in US12194065B2, “Methods and compositions to enhance metabolic detoxification systems” (Nature's Sunshine Products, Inc., priority 2017, dated 2025).

Tests used:
[1] = once produced through NOS
eNOS = eNOS (Homo sapiens, UniProt P29474)
[2] = acute supplementation of 6 g, over 120 minutes, healthy individuals with normal plasma ADMA

Sequence of eNOS (P29474 2-1203): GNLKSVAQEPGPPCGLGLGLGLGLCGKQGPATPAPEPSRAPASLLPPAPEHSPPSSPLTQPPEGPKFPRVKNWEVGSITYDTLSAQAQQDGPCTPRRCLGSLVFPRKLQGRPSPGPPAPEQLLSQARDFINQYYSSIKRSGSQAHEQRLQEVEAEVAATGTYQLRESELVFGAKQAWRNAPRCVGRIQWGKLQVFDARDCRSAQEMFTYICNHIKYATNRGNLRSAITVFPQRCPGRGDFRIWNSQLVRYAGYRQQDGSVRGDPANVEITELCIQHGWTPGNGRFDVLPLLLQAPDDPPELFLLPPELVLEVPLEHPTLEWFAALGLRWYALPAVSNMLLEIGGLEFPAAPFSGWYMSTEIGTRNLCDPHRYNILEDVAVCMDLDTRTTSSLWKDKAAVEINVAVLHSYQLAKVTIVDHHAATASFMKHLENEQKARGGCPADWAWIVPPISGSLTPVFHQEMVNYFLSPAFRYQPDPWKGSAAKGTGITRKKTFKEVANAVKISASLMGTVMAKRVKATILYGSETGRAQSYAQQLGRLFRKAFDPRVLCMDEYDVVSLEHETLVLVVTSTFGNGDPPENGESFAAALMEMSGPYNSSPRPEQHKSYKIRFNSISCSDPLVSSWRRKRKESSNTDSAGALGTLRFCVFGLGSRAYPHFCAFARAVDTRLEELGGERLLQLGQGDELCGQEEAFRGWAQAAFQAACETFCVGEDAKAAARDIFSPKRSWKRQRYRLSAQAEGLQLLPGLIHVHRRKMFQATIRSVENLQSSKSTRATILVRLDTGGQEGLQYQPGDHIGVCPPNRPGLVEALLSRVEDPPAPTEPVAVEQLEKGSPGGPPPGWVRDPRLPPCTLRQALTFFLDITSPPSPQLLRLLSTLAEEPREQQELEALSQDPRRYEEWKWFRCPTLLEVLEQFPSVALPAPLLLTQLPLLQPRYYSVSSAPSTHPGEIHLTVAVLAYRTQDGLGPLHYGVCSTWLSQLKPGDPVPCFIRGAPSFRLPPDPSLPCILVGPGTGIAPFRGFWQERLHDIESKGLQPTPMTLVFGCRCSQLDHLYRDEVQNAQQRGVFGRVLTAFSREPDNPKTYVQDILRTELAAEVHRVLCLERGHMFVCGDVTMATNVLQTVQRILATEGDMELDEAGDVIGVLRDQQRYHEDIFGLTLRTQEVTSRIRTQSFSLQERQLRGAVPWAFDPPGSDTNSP

SMILES | half-life [1] | concentration saturating eNOS (eNOS) | plasma concentration of NOx [2]
[N]=O [NO, Nitric oxide] | approximately 1 second |  | 
N=C(N)NCCC[C@H](N)C(=O)O [L-arginine] |  | approximately 3 μmol arginine/L | does not increase
